Measurements as given in PubChem BioAssay AID274 (DTP/NCI, 2004).
Inconclusive results and toxic doses are left out.

Tested on: BDF1 mice, Lewis lung carcinoma iv, survival T/C
Experiment: NCI In Vivo Anticancer Drug Screen. Data for tumor model Lewis Lung Carcinoma (intravenous) in B6D2F1 (BDF1) mice
Conditions: endpoint: median survival time, higher = longer survival
Method: The antitumor activity of compounds was measured in mice bearing transplantable tumors. Survival or tumor size were measured and the results are expressed as the measurement made in the treated group (T) divided by the measurement made in the vehicle treated control group (C). The tumor model used in this assay is Lewis Lung Carcinoma (intravenous) in B6D2F1 (BDF1) mice

[1] = dose: 12.5 mg/kg/injection, schedule: Q01DX009 (ip), vehicle: saline
[2] = dose: 25.0 mg/kg/injection, schedule: Q01DX009 (ip), vehicle: saline
[3] = dose: 50.0 mg/kg/injection, schedule: Q01DX009 (ip), vehicle: saline
[4] = dose: 100.0 mg/kg/injection, schedule: Q01DX009 (ip), vehicle: saline
[5] = dose: 200.0 mg/kg/injection, schedule: Q01DX009 (ip), vehicle: saline
[6] = dose: 2.5 mg/kg/injection, schedule: Q01DX009 (ip), vehicle: saline with Tween-80
[7] = dose: 5.0 mg/kg/injection, schedule: Q01DX009 (ip), vehicle: saline with Tween-80
[8] = dose: 10.0 mg/kg/injection, schedule: Q01DX009 (ip), vehicle: saline with Tween-80
[9] = dose: 400.0 mg/kg/injection, schedule: Q01DX009 (ip), vehicle: saline
[10] = dose: 3.12 mg/kg/injection, schedule: Q01DX009 (ip), vehicle: saline
[11] = dose: 6.25 mg/kg/injection, schedule: Q01DX009 (ip), vehicle: saline with Tween-80
[12] = dose: 12.5 mg/kg/injection, schedule: Q01DX009 (ip), vehicle: saline with Tween-80
[13] = dose: 25.0 mg/kg/injection, schedule: Q01DX009 (ip), vehicle: saline with Tween-80
[14] = dose: 50.0 mg/kg/injection, schedule: Q01DX009 (ip), vehicle: saline with Tween-80
[15] = dose: 100.0 mg/kg/injection, schedule: Q01DX009 (ip), vehicle: saline with Tween-80

For `CC(=O)OCC1OC(OC(C)=O)C(NC(=O)N(CCCl)N=O)C(OC(C)=O)C1OC(C)=O` (centres undefined), the T/C (dose: 0.75 mg/kg/injection, schedule: Q01DX009 (ip), vehicle: Klucel (hydroxypropylcellulose) (HPC)) was 105 % of control, the T/C (dose: 1.5 mg/kg/injection, schedule: Q01DX009 (ip), vehicle: Klucel (hydroxypropylcellulose) (HPC)) was 105 % of control and the T/C (dose: 3.0 mg/kg/injection, schedule: Q01DX009 (ip), vehicle: Klucel (hydroxypropylcellulose) (HPC)) was 110 % of control. The T/C (dose: 6.0 mg/kg/injection, schedule: Q01DX009 (ip), vehicle: Klucel (hydroxypropylcellulose) (HPC)) was 110 % of control.

With `CN(C)[C@@H]1C(=O)C(C(N)=O)=C(O)[C@@]2(O)C(=O)C3=C(O)c4c(O)ccc(Cl)c4[C@@](C)(O)[C@H]3C[C@@H]12` the T/C [1] was 111 % of control, the T/C [2] was 101 % of control and the T/C [3] was 99 % of control. For the same compound, the T/C [4] was 103 % of control and the T/C [5] was 107 % of control.

For `CC1OC(=O)C(C(C)C)NC(=O)C(C(C)C)OC(=O)C(C(C)C)NC(=O)C(C)OC(=O)C(C(C)C)NC(=O)C(C(C)C)OC(=O)C(C(C)C)NC(=O)C(C)OC(=O)C(C(C)C)NC(=O)C(C(C)C)OC(=O)C(C(C)C)NC1=O` (centres undefined), the T/C (dose: 1.25 mg/kg/injection, schedule: Q01DX009 (ip), vehicle: saline with Tween-80) was 94 % of control, the T/C [6] was 102 % of control and the T/C [7] was 98 % of control. For the same compound, the T/C [8] was 102 % of control, the T/C (dose: 20.0 mg/kg/injection, schedule: Q01DX009 (ip), vehicle: saline with Tween-80) was 89 % of control and the T/C (dose: 40.0 mg/kg/injection, schedule: Q01DX009 (ip), vehicle: saline with Tween-80) was 89 % of control.

With `O=C(O)CC(NC(=O)CP(=O)(O)O)C(=O)O` (centres undefined) the T/C (dose: 490.0 mg/kg/injection, schedule: Q04DX003 (ip), vehicle: saline) was 165 % of control and the T/C (dose: 700.0 mg/kg/injection, schedule: Q04DX003 (ip), vehicle: saline) was 100 % of control.

With `NC(=O)c1[nH]nc(C2OC(CO)C(O)C2O)c1O` (centres undefined) the T/C (dose: 78.13 micrograms/kg/injection, schedule: Q01DX009 (ip), vehicle: water) was 98 % of control, the T/C (dose: 156.25 micrograms/kg/injection, schedule: Q01DX009 (ip), vehicle: water) was 118 % of control and the T/C (dose: 312.5 micrograms/kg/injection, schedule: Q01DX009 (ip), vehicle: water) was 87 % of control. For the same compound, the T/C (dose: 625.0 micrograms/kg/injection, schedule: Q01DX009 (ip), vehicle: water) was 122 % of control.

With `O=C1NC(O)CCN1C1OC(CO)C(O)C1O` (centres undefined) the T/C [1] was 110 % of control, the T/C [2] was 100 % of control and the T/C [3] was 118 % of control. The T/C [4] was 118 % of control, the T/C [5] was 98 % of control and the T/C [9] was 102 % of control. For the same compound, the T/C (dose: 800.0 mg/kg/injection, schedule: Q01DX009 (ip), vehicle: saline) was 101 % of control.

In the case of `Cc1c2cc[n+](CCN3CCCCC3)cc2c(C)c2c1[nH]c1ccc(O)cc12`, the T/C (dose: 1.56 mg/kg/injection, schedule: Q01DX009 (ip), vehicle: suspension in saline) is reported as 105 % of control, the T/C (dose: 3.12 mg/kg/injection, schedule: Q01DX009 (ip), vehicle: suspension in saline) is reported as 100 % of control and the T/C (dose: 6.25 mg/kg/injection, schedule: Q01DX009 (ip), vehicle: suspension in saline) is reported as 109 % of control. For the same compound, the T/C (dose: 12.5 mg/kg/injection, schedule: Q01DX009 (ip), vehicle: suspension in saline) was 118 % of control and the T/C (dose: 25.0 mg/kg/injection, schedule: Q01DX009 (ip), vehicle: suspension in saline) was 122 % of control.

With `O=C1OC(C(O)CO)C(O)=C1O` (centres undefined) the T/C [5] was 112 % of control and the T/C [9] was 100 % of control.

In the case of `O=C(CCN1CC1)Nc1cccc(NC(=O)CCN2CC2)c1`, the T/C [6] is reported as 110 % of control, the T/C [7] is reported as 106 % of control and the T/C [8] is reported as 123 % of control.

For `COc1cc2cc[n+](C)c(Cc3ccccc3)c2cc1OC`, the T/C (dose: 3.12 mg/kg/injection, schedule: Q01DX009 (ip), vehicle: saline with Tween-80) was 285 % of control, the T/C [10] was 106 % of control and the T/C [11] was 91 % of control. For the same compound, the T/C (dose: 6.25 mg/kg/injection, schedule: Q01DX009 (ip), vehicle: saline) was 108 % of control, the T/C [12] was 161 % of control and the T/C [1] was 116 % of control. For the same compound, the T/C [13] was 95 % of control and the T/C [2] was 120 % of control.

In the case of `CN1C(=O)C(=Cc2ccc(O)cc2)C(=O)N(C)C1=O`, the T/C [12] is reported as 101 % of control, the T/C [13] is reported as 105 % of control and the T/C [14] is reported as 106 % of control. The T/C [15] was 99 % of control, the T/C (dose: 200.0 mg/kg/injection, schedule: Q01DX009 (ip), vehicle: saline with Tween-80) was 101 % of control and the T/C (dose: 400.0 mg/kg/injection, schedule: Q01DX009 (ip), vehicle: saline with Tween-80) was 96 % of control.

`CCCNC1=C(C)C(=O)C2=C(C1=O)[C@H](COC(N)=O)[C@]1(OC)[C@@H]3N[C@@H]3CN21` was tested, and the T/C (dose: 0.39 mg/kg/injection, schedule: Q01DX009 (ip), vehicle: saline) was 104 % of control, the T/C (dose: 0.78 mg/kg/injection, schedule: Q01DX009 (ip), vehicle: saline) was 100 % of control and the T/C (dose: 1.56 mg/kg/injection, schedule: Q01DX009 (ip), vehicle: saline) was 102 % of control. For the same compound, the T/C [10] was 108 % of control.

In the case of `COc1cccc2c1C(=O)c1c(O)c3c(c(O)c1C2=O)C[C@@](O)(/C(C)=N\O)C[C@@H]3OC1CC(N)C(O)C(C)O1` (some centres undefined), the T/C (dose: 3.13 mg/kg/injection, schedule: Q01DX009 (ip), vehicle: water) is reported as 108 % of control, the T/C (dose: 6.25 mg/kg/injection, schedule: Q01DX009 (ip), vehicle: water) is reported as 99 % of control and the T/C (dose: 12.5 mg/kg/injection, schedule: Q01DX009 (ip), vehicle: water) is reported as 114 % of control.

With `CCCCCC(O)C1C(=O)OC(C)C(O)/C=C/C=C/C=C/C=C\C=C(\C)C(O)CC(O)CC(O)CC(O)CC(O)CC(O)CC1O` (centres undefined) the T/C (dose: 3.12 mg/kg/injection, schedule: Q01DX009 (ip), vehicle: distilled water + alcohol) was 103 % of control, the T/C (dose: 6.25 mg/kg/injection, schedule: Q01DX009 (ip), vehicle: distilled water + alcohol) was 96 % of control and the T/C (dose: 12.5 mg/kg/injection, schedule: Q01DX009 (ip), vehicle: distilled water + alcohol) was 106 % of control. The T/C (dose: 25.0 mg/kg/injection, schedule: Q01DX009 (ip), vehicle: distilled water + alcohol) was 96 % of control.

In the case of `OCCN1CCN(CC/C=C2/c3ccccc3Sc3ccc(C(F)(F)F)cc32)CC1`, the T/C (dose: 1.56 mg/kg/injection, schedule: Q01DX009 (ip), vehicle: saline with Tween-80) is reported as 98 % of control, the T/C (dose: 3.13 mg/kg/injection, schedule: Q01DX009 (ip), vehicle: saline with Tween-80) is reported as 97 % of control and the T/C [12] is reported as 97 % of control.

For `CCCCc1ccc2nc(NC(=O)OC)[nH]c2c1`, the T/C [11] was 94 % of control, the T/C [12] was 92 % of control and the T/C [13] was 103 % of control. For the same compound, the T/C [14] was 102 % of control and the T/C [15] was 107 % of control.

In the case of `NC(=O)C(F)C(N)C(=O)O` (centres undefined), the T/C [2] is reported as 99 % of control, the T/C [3] is reported as 100 % of control and the T/C [4] is reported as 103 % of control.
